Laboratory results published in patent US20260365646A1, “AKT1 MODULATORS” (Alterome Therapeutics, Inc., priority 2022, published 2026).
Read-outs that look alike come from different tables or passages of the source.

Biological target: T1, full length AKT E17K (Homo sapiens, UniProt P31749, E17K)
T1 construct: host or cells: HEK-293 (ATCC CRL-1573)
Assay: NanoBRET Target Engagement (TE) Intracellular Kinase Assay
Format: cell-based
Method in brief: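 Live-cell BRET assay: cells expressing NanoLuc-fused full-length AKT E17K incubated 2 h with tracer at target-optimized concentration plus compound. BRET read at 450 nm donor/600 nm acceptor with extracellular NanoLuc inhibitor. EC50 from sigmoidal variable-slope fit of tracer displacement.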

[1] = read-out: NanoBRET AKT1E17K EC50, HEK-293 cells transfected with NanoLuc-AKT E17K, competitive displacement of NanoBRET tracer, 2 hr equilibration, 10-point 3-fold dilution

T1 sequence (P31749 whole entry E17K): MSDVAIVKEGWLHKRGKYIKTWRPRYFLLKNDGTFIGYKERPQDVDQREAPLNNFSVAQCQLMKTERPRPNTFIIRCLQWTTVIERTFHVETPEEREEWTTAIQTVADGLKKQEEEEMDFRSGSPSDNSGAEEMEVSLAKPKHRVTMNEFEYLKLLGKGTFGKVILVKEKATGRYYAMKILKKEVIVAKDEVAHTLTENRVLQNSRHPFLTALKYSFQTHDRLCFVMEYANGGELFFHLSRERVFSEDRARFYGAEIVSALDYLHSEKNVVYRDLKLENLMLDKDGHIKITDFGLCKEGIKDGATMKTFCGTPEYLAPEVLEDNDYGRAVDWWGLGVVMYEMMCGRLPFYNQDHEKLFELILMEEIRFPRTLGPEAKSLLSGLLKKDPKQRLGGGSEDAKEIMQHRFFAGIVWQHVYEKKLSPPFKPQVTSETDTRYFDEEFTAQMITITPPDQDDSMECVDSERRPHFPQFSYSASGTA

Structure (SMILES)	EC50 [nM]	EC50 [1] [nM]
COc1c(N[C@@H]2CCCN(Cc3ccc(-n4c(-c5cccnc5N)nc5ccc(-c6ccccc6)nc54)cc3)C2)c(=O)c1=O [Example 34, (R)-3-((1-(4-(2-(2-aminopyridin-3-yl)-5-phenyl-3H-imidazo[4,5-b]pyridin-3-yl)benzyl)piperidin-3-yl)amino)-4-methoxycyclobut-3-ene-1,2-dione]	–	< 15
COc1c(N2CCC3(CCN(Cc4ccc(-n5c(-c6cccnc6N)nc6ccc(-c7ccccc7)nc65)cc4)C3)CC2)c(=O)c1=O [Example 57, 3-(2-(4-(2-(2-Aminopyridin-3-yl)-5-phenyl-3H-imidazo[4,5-b]pyridin-3-yl)benzyl)-2,8-diazaspiro[4.5]decan-8-yl)-4-methoxycyclobut-3-ene-1,2-dione]	15 to 60	–
COc1c(NCc2ccc(-n3c(-c4cccnc4N)nc4cccnc43)cc2)c(=O)c1=O [Example 2, 3-((4-(2-(2-Aminopyridin-3-yl)-3H-imidazo[4,5-b]pyridin-3-yl)benzyl)amino)-4-methoxycyclobut-3-ene-1,2-dione]	> 600	–
COc1c(N(C)C2CCN(Cc3ccc(-n4c(-c5cccnc5N)nc5ccc(-c6ccccc6)nc54)cc3)CC2)c(=O)c1=O [Example 27, 3-((1-(4-(2-(2-aminopyridin-3-yl)-5-phenyl-3H-imidazo[4,5-b]pyridin-3-yl)benzyl)piperidin-4-yl)(methyl)amino)-4-methoxycyclobut-3-ene-1,2-dione]	–	< 15
COc1c(NC2CCN(Cc3ccc(-n4c(-c5cccnc5N)nc5cccnc54)cc3)CC2)c(=O)c1=O [Example 3, 3-((1-(4-(2-(2-Aminopyridin-3-yl)-3H-imidazo[4,5-b]pyridin-3-yl)benzyl)piperidin-4-yl)amino)-4-methoxycyclobut-3-ene-1,2-dione]	15 to 60	–
Nc1ncccc1-c1nc2ccc(-c3ccccc3)nc2n1-c1ccc(CN2CCC(Nc3c(OC4CCCC4)c(=S)c3=O)CC2)cc1 [Example 15, 2-((1-(4-(2-(2-Aminopyridin-3-yl)-5-phenyl-3H-imidazo[4,5-b]pyridin-3-yl)benzyl)piperidin-4-yl)amino)-3-(cyclopentyloxy)-4-thioxocyclobut-2-en-1-one]	60 to 600	–
COc1c(N2CCC3(CC2)CN(Cc2ccc(-n4c(-c5cccnc5N)nc5ccc(-c6ccccc6)nc54)cc2)C3)c(=O)c1=O [Example 60, 3-(2-(4-(2-(2-Aminopyridin-3-yl)-5-phenyl-3H-imidazo[4,5-b]pyridin-3-yl)benzyl)-2,7-diazaspiro[3.5]nonan-7-yl)-4-methoxycyclobut-3-ene-1,2-dione]	–	< 15
COc1c(N[C@@H]2CCN(Cc3ccc(-n4c(-c5cccnc5N)nc5ccc(-c6ccccc6)nc54)cc3)C2)c(=O)c1=O [Example 50, (R)-3-((1-(4-(2-(2-Aminopyridin-3-yl)-5-phenyl-3H-imidazo[4,5-b]pyridin-3-yl)benzyl)pyrrolidin-3-yl)amino)-4-methoxycyclobut-3-ene-1,2-dione]	15 to 60	–

Next, values leading:

EC50 [nM]	EC50 [1] [nM]	Structure (SMILES)
60 to 600	–	COc1c(N2CCN(Cc3ccc(-n4c(-c5cccnc5N)nc5ccc(-c6ccccc6)nc54)cc3)C[C@H]2CO)c(=O)c1=O [Example 80, (S)-3-(4-(4-(2-(2-aminopyridin-3-yl)-5-phenyl-3H-imidazo[4,5-b]pyridin-3-yl)benzyl)-2-(hydroxymethyl)piperazin-1-yl)-4-methoxycyclobut-3-ene-1,2-dione]
> 600	–	Nc1ncccc1-c1nc2ccc(-c3ccccc3)nc2n1-c1ccc(CN2CCC(N3CCCOc4c3c(=O)c4=O)CC2)cc1 [Example 84, 6-(1-(4-(2-(2-aminopyridin-3-yl)-5-phenyl-3H-imidazo[4,5-b]pyridin-3-yl)benzyl)piperidin-4-yl)-2-oxa-6-azabicyclo[5.2.0]non-1(7)-ene-8,9-dione]
–	< 15	COc1c(N2C[C@@H]3C[C@H]2CN3Cc2ccc(-n3c(-c4cccnc4N)nc4ccc(-c5ccccc5)nc43)cc2)c(=O)c1=O [Example 75, 3-((1S,4S)-5-(4-(2-(2-aminopyridin-3-yl)-5-phenyl-3H-imidazo[4,5-b]pyridin-3-yl)benzyl)-2,5-diazabicyclo[2.2.1]heptan-2-y1)-4-methoxycyclobut-3-ene-1,2-dione]
